Patent US20070010581A1, “Use of 2,5-dihydroxybenzenesulfonic compounds for the treatment of disorders based on an impairment of no production and/or of regulation of edhf function” (priority 2002, published 2007)

Key:
[1] = tested on: human penile resistance arteries (HPRA); experiment: Vascular reactivity of resistance penile arteries (myograph, isometric tension)
Experimental: Penile small arteries, helicine arteries (lumen diameter 150-400 μm), which are the terminal branches of deep penile arteries, were dissected by carefully removing the adhering trabecular tissue, and arterial ring segments (of 2 mm length) were subsequently mounted on two 40 μm wires on microvascular double Halpern-Mulvany myographs (J.P. Trading, Aarhus, Denmark) for isometric tension recordings. The vascular segments were allowed to equilibrate for 30 min in physiological salt solution (PSS) of the following composition (each given in mM): 119 NaCl, 4.6 KCl; 1.5 CaCl2, 1.2 MgCl2, 24.9 NaHCO3, 11 Glucose, 1,2 KH2PO4, 0.027 EDTA in water at 37° C., continuously bubbled with a 95% O2/5% CO2 mixture to maintain a pH of 7.4. Passive tension and internal circumference of the vascular segments when relaxed in situ under a transmural pressure of […] (L100) were determined. The vascular segments were then set to an internal circumference eqivalent to 90% of L100, at which the force development was dose to maximal as described in Mulvany M J, Halpem W., “Contractile properties of small resistance arteries in spontaneously hypertensive and normotensive rats”, Circ. Res., 41, 19-26, 1977. The respective literature description is incorporated by reference and is part of the disclosure. The preparations were then exposed to 125 mM K^+ (KPSS, equimolar substitution of NaCl for KCl in PSS) and the contractile response was measured. The arteries were contracted with 1 μm norepinephrine (approximately 80% of KPSS induced contraction) and relaxation responses were evaluated by cumulative additions of compounds to the chambers.
Relaxation responses are expressed as percentage of total relaxation (loss in tone) induced by the addition of 0.1 mM papaverine HCl to the chambers at the end of the experiment. All data are expressed as mean±standard error. Complete concentration-response or frequency-response curves were obtained and compared by a two-factor analysis of variance (ANOVA) statistical test using StatView sotfware for Apple computers. Erectile responses were determined by measuring the area under the curve (AUC) of the intracavemosal pressure increases to rat cavernosal nerve stimulation normalized by mean arterial pressure values. The complete frequency-response curves were compared by a two-factor ANOVA test.

[2] = tested on: erectile responses (intracavernosal pressure) to cavernosal nerve stimulation; experiment: Erectile responses to cavernosal nerve stimulation in anesthetized rats; type: in vivo, rat; conditions: intravenous 10 mg/kg, stimulation 60 min after administration
Experimental: Male Sprague-Dawley rats were anesthetized with ketamine (60 mg/kg). The surgical procedure consisted of dissection and isolation of the right cavernous nerve through an abdominal midline incision and exposure of penile crura through a transverse perineal incision. Intracavemosal pressure (ICP) measurements were accomplished by insertion into the right crus of a 23-gauge needle connected to a disposable pressure transducer (Abbott, Sligo, Ireland) and a data acquisition system (ADInstruments, Castle Hill, Australia). Left carotid artery and right external jugular vein were catheterized for constant blood pressure measurement and saline or drug infusion, respectively. Electrical stimulation was applied by a delicate platinum bipolar hook electrode connected to a stimulator and current amplifier (Cibertec, Madrid, Spain). Parameters of electrical stimulation consisted of pulses with a duration of 1 ms and 1.5 mA of current intensity for 1 minute. […]
Relaxation responses are expressed as percentage of total relaxation (loss in tone) induced by the addition of 0.1 mM papaverine HCl to the chambers at the end of the experiment. All data are expressed as mean±standard error. […] Erectile responses were determined by measuring the area under the curve (AUC) of the intracavemosal pressure increases to rat cavernosal nerve stimulation normalized by mean arterial pressure values. […]

O=S(=O)(O)c1cc(O)ccc1O [calcium dobesilate, calcium dihydroxy-2,5 benzenesulfonate]
effect on ACh-induced relaxation of HPRA ([1]; calcium dobesilate 10 μM): markedly potentiated | potentiation of ACh-induced relaxation of HPRA under combined inhibition of NOS and COX ([1]; calcium dobesilate 10 μM, combined inhibition of NOS and COX): not significantly affected | potentiation of ACh-induced relaxation of HPRA at high potassium concentration ([1]; calcium dobesilate 10 μM, high potassium concentration (35 mM)): abolished | potentiating effects on ACh-induced relaxation of HPRA with APA and CTX ([1]; combination of APA (100 nM) and CTX (100 nM)): abolished the potentiating effects | potentiating effects on ACh-induced relaxation of HPRA resistant to NOS and COX inhibition, with miconazole ([1]; miconazole (0.3 mM)): significantly reduced the potentiating effects | erectile responses to cavernosal nerve stimulation [2]: significantly enhanced the erectile responses
